Measurements reported in PubChem BioAssay AID1057 (University of Pittsburgh Molecular Library Screening Center, 2008).
Activity calls are given as the source filed them. No rule for the calls is given here.

These compounds were tested against Serine/threonine-protein kinase PLK1 (Homo sapiens) (UniProt P53350) (assay: PLK1 polo-box domain peptide-binding inhibitors, SAR follow-up, biochemical, fluorescence polarization, synthesized analogs, concentration response (AID 1057)). Conditions: Plk1 PBD fluorescence polarization peptide binding.
Chain of Serine/threonine-protein kinase PLK1 (Homo sapiens) (P53350 whole entry, looked up, the tested form may be a part): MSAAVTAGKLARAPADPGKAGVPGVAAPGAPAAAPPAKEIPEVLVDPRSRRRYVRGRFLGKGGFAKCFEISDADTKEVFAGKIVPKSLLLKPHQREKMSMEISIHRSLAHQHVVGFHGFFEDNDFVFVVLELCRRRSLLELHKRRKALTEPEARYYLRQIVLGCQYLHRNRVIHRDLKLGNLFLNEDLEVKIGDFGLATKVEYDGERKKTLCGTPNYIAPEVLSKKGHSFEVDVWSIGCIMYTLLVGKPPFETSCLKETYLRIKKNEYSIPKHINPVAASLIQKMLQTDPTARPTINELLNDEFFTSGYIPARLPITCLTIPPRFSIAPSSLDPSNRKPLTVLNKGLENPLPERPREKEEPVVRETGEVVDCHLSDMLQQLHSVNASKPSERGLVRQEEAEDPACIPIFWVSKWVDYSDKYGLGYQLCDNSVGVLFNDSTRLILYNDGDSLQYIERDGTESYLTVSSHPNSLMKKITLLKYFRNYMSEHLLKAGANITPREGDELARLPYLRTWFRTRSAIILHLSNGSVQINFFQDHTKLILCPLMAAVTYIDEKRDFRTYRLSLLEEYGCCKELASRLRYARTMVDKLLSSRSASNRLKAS
In the case of `Cc1cccc(N/N=C/c2c(O)[nH]c(=S)[nH]c2=O)c1`, the IC50 is reported as > 50 µM (inactive).
For `C/C(=N\NC(=O)c1ccncc1)c1c(O)[nH]c(=O)[nH]c1=O`, the IC50 was > 50 µM (inactive).
In the case of `CCOC(=O)CCCCCNC(=O)c1c(O)[nH]c(=O)[nH]c1=O`, the IC50 is reported as > 50 µM (inactive).
